Experimental data published in US11192860B2, “Co-crystal of an orally available HIF prolyl hydroxylase inhibitor” (Sandoz AG, priority 2017, dated 2021).
Each block holds one compound with its values, some of them ahead of it.

Columns and labels:
[1] = FIGS. 4, 6 and 8 of WO 2014/014835 A2; cited from earlier work
[2] = TGA curves of WO 2014/014835 A2; cited from earlier work
[3] = Powder dissolution in phosphate buffer pH 6 at 25° C., concentration by HPLC; assay type: physicochemical; settings: phosphate buffer pH 6, 25° C.
Method: Powder dissolution experiments were carried out in phosphate buffer pH 6 at 25° C. for form A of roxadustat and the L-proline co-crystal of the present invention. The respective concentrations were determined by HPLC at a wavelength of 254 nm.

[4] = Stability against temperature and moisture (40° C., 75% RH, PXRD); assay type: physicochemical; settings: 75% relative humidity, 7 days
[5] = Stability against pressure (IR press, PXRD); assay type: physicochemical; settings: pressed to a pellet at about 100 kN, ground again
Source text: The pellet was ground again in order to obtain a powder, which was then investigated by PXRD.

[6] = Stability against mechanical stress (dry grinding, PXRD); assay type: physicochemical; settings: dry ground 20 minutes, 25 vibrations per second
Method: A 1.5 mL grinding jar with one ball (5 mm diameter) both made of stainless steel was fed with about 70 mg sample and ground for 20 minutes at a frequency of 25 vibrations per second.

[7] = Differential scanning calorimetry (thermal stability); assay type: physicochemical; settings: 25 to 250° C. at 10 K/min
Method: The roxadustat L-proline co-crystal according to the present invention was investigated by DSC, which was performed on a Mettler Polymer DSC R instrument. The sample (2.72 mg) was heated in a 40 microliter aluminium pan with a pierced aluminium lid from 25 to 250° C. at a rate of 10 K/min. Nitrogen (purge rate 50 mL/min) was used as purge gas.

[8] = Thermogravimetric analysis (mass loss on heating); assay type: physicochemical; settings: 10 K/min
Method: The sample (16.28 mg) was heated in a 100 microliter aluminum pan closed with an aluminum lid. The lid was automatically pierced at the beginning of the measurement. The sample was heated from 25 to 250° C. at a rate of 10 K/min. Nitrogen (purge rate 50 mL/min) was used as purge gas.
For example mass losses of only about 0.1 weight % up to a temperature of about 180° C., about 0.2 weight % up to a temperature of about 190° C. and about 0.3 weight % up to a temperature of about 200° C. were observed, which further proves the presence of an anhydrous and non-solvated co-crystal.

Compound: Cc1nc(C(=O)NCC(=O)O)c(O)c2ccc(Oc3ccccc3)cc12.Cc1nc(C(=O)NCC(=O)O)c(O)c2ccc(Oc3ccccc3)cc12.O [form B]
- phase transformation during DSC experiments [1]: at least partially transform to form A
- solvent/water loss upon heating (TGA) [2]: readily lose their solvents/water upon heating

- time after which the complex falls apart in aqueous solution into its pure components [3]: about 5 minutes
- Concentration roxadustat (dissolution profile) ([3]; 1 min, listed as roxadustat L-prolin co-crystal): 660 µg/mL
- Concentration roxadustat (dissolution profile) ([3]; 5 min, listed as roxadustat L-prolin co-crystal): 30 µg/mL
- Concentration roxadustat (dissolution profile) ([3]; 15 min, listed as roxadustat L-prolin co-crystal): 20 µg/mL
- Concentration roxadustat (dissolution profile) ([3]; 30 min, listed as roxadustat L-prolin co-crystal): 40 µg/mL
- Concentration roxadustat (dissolution profile) ([3]; 60 min, listed as roxadustat L-prolin co-crystal): 100 µg/mL
- Concentration roxadustat (dissolution profile) ([3]; 180 min, listed as roxadustat L-prolin co-crystal): 90 µg/mL
- phase changes according to powder X-ray diffraction [4]: no phase changes occurred
- phase changes according to powder X-ray diffraction [5]: no phase changes occured
- phase changes according to powder X-ray diffraction [6]: no phase changes occured
- TGA mass loss ([8]; up to about 180° C.): about 0.1 weight %
- TGA mass loss ([8]; up to about 190° C.): about 0.2 weight %
- TGA mass loss ([8]; up to about 200° C.): about 0.3 weight %
Compound: Cc1nc(C(=O)NCC(=O)O)c(O)c2ccc(Oc3ccccc3)cc12 [roxadustat L-proline co-crystal]
- thermal events in DSC until melting [7]: neither phase changes nor desolvation events are detectable until the sample melts

- Concentration roxadustat (dissolution profile) ([3]; 1 min): 30 µg/mL
- Concentration roxadustat (dissolution profile) ([3]; 5 min): 50 µg/mL
- Concentration roxadustat (dissolution profile) ([3]; 15 min): 60 µg/mL
- Concentration roxadustat (dissolution profile) ([3]; 30 min): 50 µg/mL
- Concentration roxadustat (dissolution profile) ([3]; 60 min): 60 µg/mL
- Concentration roxadustat (dissolution profile) ([3]; 180 min): 70 µg/mL
Compound: Cc1nc(C(=O)NCC(=O)O)c(O)c2ccc(Oc3ccccc3)cc12 [roxadustat form A, [(4-hydroxy-1-methyl-7-phenoxyisoquinoline-3-carbonyl)amino]acetic acid, reference compound]
